These results are taken from US20240279710A1, “FLUORESCENT PROBES” (TOHOKU TECHNO ARCH CO., LTD., priority 2021, published 2024).

SMILES strings stand for the structures.

Assay [1] concerns iPS cell-derived three-dimensional stereoscopic retinal tissue. Description: Glutamic acid injury model of iPS cell-derived three-dimensional stereoscopic retinal tissue. The assay is classed as cell-based, human. On the procedure: Next, to confirm a reaction under conditions closer to those of a living organism, the iPS cell-derived three-dimensional stereoscopic retinal tissue on the 60th day of the differentiation induction was left at rest in a 24-well plate containing 1 mL of a reaction medium (obtained by adding CaCl2 (final concentration: 2.4 mM) and HEPES (final concentration: 20 mM) to a HBSS solution) in each well (n=5). The tissue was washed with 1 mL of the reaction medium twice, and glutamic acid was added thereto so that its final concentration became 0 μM, 300 μM, or 1 mM, followed by a reaction for 1 hour. Compound 19 was added to the resultant 1 hour after the addition of glutamic acid so that its final concentration became 0 μM, 0.25 μM, 1.2 μM, or 5.0 μM, and an image of the fluorescence of the mixture was taken with a fluorescence microscope (ZEISS Axio Vert.A1) (a RGB mode (lower stage) and a B/W mode (upper stage)) 1 hour thereafter. In all image-taking operations, an exposure time was fixed to 200 ms. The results of groups in which the final concentrations of glutamic acid are 0 μM, 300 μM, and 1 mM are shown in FIG. 25, FIG. 26, and FIG. 27, respectively. […] In addition, a graphical representation of an average calculated from fluorescence intensities in the images taken in the B/W mode (n=3) is shown in FIG. 28. […] In addition, results obtained by comparing and examining the fluorescence intensities of Compound 19 and Compound 16 are shown in FIG. 29.

Assay [2] has as its system retinal ganglion cells. The experiment in a line: Glutamic acid injury of retinal ganglion cells isolated from iPS cell-derived retinal tissue. Format: cell-based, human. The following applies: glutamic acid 300 μM, probe 5 μM added 1 hour later, imaged 1 hour thereafter; FIG. 24. The procedure:
A glutamic acid injury model that activated a calpain to induce a retinal ganglion cell injury was produced from the iPS cell-derived three-dimensional stereoscopic retinal tissue, and calpain activity with Compound 19 was evaluated by using the model. First, to identify a retinal ganglion cell injury caused by a glutamic acid injury, retinal ganglion cells were isolated from the iPS cell-derived three-dimensional stereoscopic retinal tissue with auto MACS pro (trademark) and CD90 MicroBeads. Glutamic acid (final concentration: 300 μM) was added to the cells to be caused to react therewith for 1 hour. Compound 19 (final concentration: 5 μM) was added thereto 1 hour after the addition of glutamic acid, and images of the state and fluorescence of the cells were taken (RGB and B/W modes) with a fluorescence microscope (ZEISS Axio Vert.A1) 1 hour thereafter.

For the molecule `COCC(=O)N[C@@H](CC(C)C)C(=O)N[C@@H](CCSC)C(=O)Nc1ccc2c(c1)Oc1cc(N)ccc1C21OCc2ccccc21` (stereo partly shown) [Compound 19], in assay [1] (glutamic acid 300 μM or 1 mM, probe 0, 0.25, 1.2 or 5.0 μM, 1 hour, FIG. 26, FIG. 27), the “fluorescence images of retinal tissue” value is given as “enhancement of fluorescence expression was observed in proportion to the concentration of Compound 19”. In assay [1] (glutamic acid 1 mM, probe 0.25 μM, 1.2 μM, or 5.0 μM, FIG. 29), the “fluorescence intensity compared with Compound 16” value is listed as “stronger fluorescence than that of Compound 16”. Besides, in assay [1] (same glutamic acid concentration (0 μM, 300 μM, 1 mM), probe 0 to 5.0 μM, FIG. 28), the “average fluorescence intensity of retinal tissue (B/W mode)” value is listed as “fluorescence was strongly observed in a manner dependent on the concentration of Compound 19”. Moreover, in assay [2], the “fluorescence of isolated retinal ganglion cells” value was “enhancement of the fluorescence”.
